{
  "source": "patent US10487056B2",
  "about": "“Small molecule androgen receptor inhibitors and methods of use thereof” (GEORGETOWN UNIVERSITY, priority 2015, dated 2019)",
  "type_in_all_cases": "cell-based",
  "key": {"22Rv1-MDVR cells": {"tested_on": "22Rv1-MDVR cells", "assay": "Caspase-Glo 3/7 activity assay, 22Rv1-MDVR cells", "conditions": "SH-I-125 1 μM, 3 days", "method": "Caspase 3/7 activity was measured using Caspase-Glo 3/7 substrates. Data represent mean of three independent experiments with quadruplicate samples; bars, SEM.\nThe emergence of resistance to clinical anti-androgens is an ongoing problem in the treatment of castration-resistant prostate cancer."}, "AR [1]": {"molecular_target": "T1, AR (Homo sapiens, UniProt P10275)", "T1 construct": "Androgen-dependent VCaP cells were made to stably express an androgen-response element luciferase reporter (VCaP-ARE-luc); host or cells: VCaP / VCaP-ARE-luc", "T1 sequence (P10275 1-920)": "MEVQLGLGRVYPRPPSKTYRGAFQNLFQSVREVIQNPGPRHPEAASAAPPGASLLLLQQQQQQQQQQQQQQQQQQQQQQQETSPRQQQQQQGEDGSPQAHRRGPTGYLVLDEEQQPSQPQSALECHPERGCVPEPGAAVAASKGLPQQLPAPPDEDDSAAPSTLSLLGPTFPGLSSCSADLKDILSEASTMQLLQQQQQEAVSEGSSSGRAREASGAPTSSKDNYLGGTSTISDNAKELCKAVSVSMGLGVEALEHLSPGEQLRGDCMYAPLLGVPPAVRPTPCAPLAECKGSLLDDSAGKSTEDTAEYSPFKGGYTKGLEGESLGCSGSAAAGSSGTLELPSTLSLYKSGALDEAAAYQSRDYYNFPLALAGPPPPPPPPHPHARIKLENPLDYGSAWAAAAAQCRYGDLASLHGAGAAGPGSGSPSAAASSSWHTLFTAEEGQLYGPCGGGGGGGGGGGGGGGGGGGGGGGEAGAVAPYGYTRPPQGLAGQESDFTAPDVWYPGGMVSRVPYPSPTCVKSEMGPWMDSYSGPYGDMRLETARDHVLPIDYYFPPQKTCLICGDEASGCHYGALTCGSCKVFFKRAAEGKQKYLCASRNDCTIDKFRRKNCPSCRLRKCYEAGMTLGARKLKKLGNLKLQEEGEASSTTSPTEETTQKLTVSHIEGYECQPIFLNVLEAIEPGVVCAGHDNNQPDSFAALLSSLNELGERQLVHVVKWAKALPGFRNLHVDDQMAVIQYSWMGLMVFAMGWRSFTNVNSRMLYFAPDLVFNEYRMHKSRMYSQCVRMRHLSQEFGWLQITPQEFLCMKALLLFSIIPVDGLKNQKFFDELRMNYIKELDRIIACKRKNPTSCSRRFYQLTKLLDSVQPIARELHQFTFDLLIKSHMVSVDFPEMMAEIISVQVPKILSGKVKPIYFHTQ", "assay": "Immunofluorescence staining and Western blot of AR and PSA in VCaP cells", "conditions": "DHT 1 nM, MDV3100 10 μM or SH-I-125 1 μM, 24 hours", "method": "Androgen receptor (AR) and PSA expression levels were assessed.\nAR and PSA expression levels were assessed. B-actin was used as a loading control."}, "[2]": {"tested_on": "VP16-Gal4DBD fusion protein", "assay": "VP16-Gal4DBD / UAS-luc reporter, negative control", "conditions": "SH-I-125 1 μM, 24 hours", "method": "22Rv1 cells were co-transfected with VP16 activation domain-Gal4DBD fusion protein and Gal4UAS-TATA-luciferase reporter and treated with SH-I-125 (1 μM) for 24 hours. Luciferase activity was measured and normalized with Renilla luciferase. Columns, mean of three independent experiments with quadruplicate samples; bars, SEM.\nThe N-terminal domain of the AR (AR NTD) is known to be its transactivation domain, essential for ligand-independent AR activation. Mahanine is able to inhibit AR activation induced by ligand-independent mechanisms such as forskolin and interleukin-6, which activate the AR NTD. […] As a negative control, a constitutively active VP16-Gal4DBD fusion protein and the UAS-luc reporter were co-expressed in […]. […] […]."}, "22Rv1 cells [3]": {"tested_on": "22Rv1 cells", "assay": "MTT cell viability assay, 22Rv1 cells", "conditions": "3 days", "method": "Cells were treated in the manner indicated below for the specified period of time. MTT assay was performed as described in Amin et al., Mol. Cancer Ther., 13:341-52 (2014).\nTo determine the effects of SH-I-125 on prostate cancer cell growth, 22Rv1 cells were treated with SH-I-125 and cell viability was measured after a period of 3 days. […]. In comparison, non-tumorigenic primary prostate epithelial cells (PrEC) retained 80% viability in the presence of a similar range of doses of SH-I-125, showing that tumorigenic cells are more susceptible to the growth inhibitory properties of SH-I-125 compared to non-tumorigenic cells (FIG. 8B). […] Staurosporine was used as a positive control for cell death induction in live and dead assays (FIG. 9C)."}, "[4]": {"molecular_target": "T2, AR NTD-Gal4DBD fusion protein (Homo sapiens, UniProt P10275)", "T2 construct": "expressed in transfected cells; host or cells: VCaP", "T2 sequence (P10275 with tags, fused parts or gaps limits assumed)": "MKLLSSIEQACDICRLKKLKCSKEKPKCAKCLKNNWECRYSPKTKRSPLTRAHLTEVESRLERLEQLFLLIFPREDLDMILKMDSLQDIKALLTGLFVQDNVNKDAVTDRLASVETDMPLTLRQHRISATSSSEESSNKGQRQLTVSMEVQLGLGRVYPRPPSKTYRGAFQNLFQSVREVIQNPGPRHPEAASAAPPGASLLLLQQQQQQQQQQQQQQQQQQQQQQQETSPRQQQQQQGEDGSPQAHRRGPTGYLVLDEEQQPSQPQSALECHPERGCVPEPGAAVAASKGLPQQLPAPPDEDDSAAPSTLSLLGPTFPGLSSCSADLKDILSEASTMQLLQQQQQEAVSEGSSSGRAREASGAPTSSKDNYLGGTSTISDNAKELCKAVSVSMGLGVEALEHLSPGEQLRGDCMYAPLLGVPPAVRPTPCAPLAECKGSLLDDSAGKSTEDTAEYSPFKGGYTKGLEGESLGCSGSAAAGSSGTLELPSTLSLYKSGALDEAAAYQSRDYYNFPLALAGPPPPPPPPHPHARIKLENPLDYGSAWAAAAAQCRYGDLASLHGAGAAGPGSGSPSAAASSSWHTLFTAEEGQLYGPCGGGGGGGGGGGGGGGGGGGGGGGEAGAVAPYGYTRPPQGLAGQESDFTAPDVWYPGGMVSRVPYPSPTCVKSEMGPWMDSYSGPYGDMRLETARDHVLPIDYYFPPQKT", "assay": "AR NTD-Gal4DBD / Gal4UAS-luciferase reporter in VCaP cells, forskolin-induced", "conditions": "forskolin 50 μM, 24 hours", "method": "VCaP cells were co-transfected with AR-NTD-Gal4DBD expression vector and Gal4UAS-TATA-luciferase reporter construct and optionally treated with forskolin (FSK) (50 μM) for 24 hours.\nThe N-terminal domain of the AR (AR NTD) is known to be its transactivation domain, essential for ligand-independent AR activation."}, "c-myc promoter": {"tested_on": "c-myc promoter", "assay": "c-myc promoter-luciferase reporter in 22Rv1 cells", "conditions": "1 μM, 24 hours", "method": "22Rv1 cells were transfected with c-myc promoter-luciferase reporter construct and Renilla luciferase plasmids (pRL-TK-Luc) and treated with 1 μM of SH-I-125 for 24 hours. Promoter activity was determined after normalization with Renilla luciferase activity. Columns, mean of three independent experiments with quadruplicate samples; bars, SEM."}, "AR [5]": {"tested_on": "AR", "assay": "22Rv1-ARE-luc androgen-response element luciferase reporter assay", "conditions": "24 hours", "method": "VCaP and CWR22Rv1 (referred to as 22Rv1) cells were transduced with ARE-luciferase Cignal Lenti Pathway Reporter (Qiagen; Valencia, Calif.) and cultured as described above in the presence of 1 μg/mL puromycin. Following antibiotic selection, cells stably expressing ARE-luciferase were isolated, cloned and cultured to generate a stable ARE-reporter cell lines."}, "22Rv1 cells [6]": {"tested_on": "22Rv1 cells", "assay": "Caspase-Glo 3/7 activity assay, 22Rv1 cells", "method": "22Rv1 cells were treated with SH-I-125 (1 μM) for one, two, or three days, and caspase 3/7 activity was measured using Caspase-Glo 3/7 substrates. […] Data represent mean of three independent experiments with quadruplicate samples; bars, SEM. ***, p value <0.001 determined by ANOVA.\n(§1) Caspase 3/7 activity was measured using Caspase-Glo 3/7 substrates. Data represent mean of three independent experiments with quadruplicate samples; bars, SEM. ***, p value <0.001 determined by ANOVA.\n[…]; Madison, Wis.).\n. […] Staurosporine was used as a positive control for apoptosis induction (FIG. 10B)."}, "VCaP cells": {"tested_on": "VCaP cells", "assay": "Caspase-Glo 3/7 activity assay, VCaP cells", "conditions": "3 days", "method": "as §1"}},
  "data": [
    {"smiles": "COc1ccc2c(c1)[nH]c1c(C)c(OS(=O)(=O)c3cccc4ccccc34)ccc12", "note": "[SH-I-125, 7-methoxy-1-methyl-9H-carbazol-2-yl naphthalene-1-sulfonate]", "values": [
      {"measurement": "caspase 3/7 activation", "setting": "22Rv1-MDVR cells", "result": "inducing caspase activation"},
      {"measurement": "AR nuclear localization", "setting": "AR [1]", "result": "blocked AR nuclear localization"},
      {"measurement": "PSA expression", "setting": "AR [1]", "result": "inhibited PSA expression"},
      {"measurement": "VP16-Gal4DBD luciferase activity", "setting": "[2]", "result": "did not affect luciferase activity"},
      {"measurement": "potency relative to natural-derived and synthetically-derived mahanine in preventing growth", "setting": "22Rv1 cells [3]; MTT", "result": "ten-fold"},
      {"measurement": "viability at 1 µM", "setting": "22Rv1 cells [3]; Homo sapiens, 72 h, dose of 1 μM, read-out: cell viability, of control", "result": 50, "unit": "%"},
      {"measurement": "forskolin-induced AR activation (AR NTD-Gal4DBD luciferase)", "setting": "[4]", "result": "significantly inhibited forskolin-induced AR activation"},
      {"measurement": "c-myc promoter-luciferase activity", "setting": "c-myc promoter", "result": "unaffected"},
      {"measurement": "potency relative to mahanine on AR signaling (ARE-luc)", "setting": "AR [5]", "result": "more potent than mahanine"},
      {"measurement": "ARE-luciferase activity", "setting": "AR [5]; range of doses", "result": "almost completely abolishing ARE-luciferase activity"},
      {"measurement": "caspase 3/7 activity", "setting": "22Rv1 cells [6]; 3 days", "result": "induced caspase activity"},
      {"measurement": "caspase-3 and -7 activities, time-course", "setting": "22Rv1 cells [6]; SH-I-125 1 μM, after three days treatment", "result": "significantly induced"},
      {"measurement": "caspase 3/7 activity", "setting": "VCaP cells", "result": "induced caspase activity"}
    ]}
  ]
}
